The values below come from patent US6337402B2, “Asymmetrical bisbenzotriazoles substituted by a perfluoroalkyl moiety and compositions stabilized therewith” (Ciba Specialty Chemicals Corporation, priority 1999, dated 2002).

A short description of one data set: Bisbenzotriazole solubility in adhesive GELVA 263. Format: physicochemical. Conditions: in GELVA 263 polyacrylate adhesive; approximate maximum concentration with no sign of crystallization after solvent evaporation; weight added to GELVA 263 as is.
Method: To measure the solubility of the instant bisbenzotriazole UV absorber in an adhesive composition, the compound is added to a typical adhesive GELVA® 263 (Solutia) which is a 44.5% solution of a polyacrylate in a mixture of ethyl acetate and hexane. The polyacrylate is a copolymer of methyl methacrylate, 2-ethylhexyl methacrylate and glycidyl methacrylate.
The test compound is dissolved in 5 mL of ethyl acetate, toluene or a mixture of ethyl acetate and toluene. To the solution is added 5 g of GELVA® 263. 2-3 mL of the resulting solution is place into individual watch glasses. Solubility is then evaluated based upon observed crystallization once the solvent has evaporated. Observations start after several hours and then continue over a period of several weeks.
Solubilities are reported in weight of total bisbenzotriazole added to GELVA® 263 as is.
For the molecule `CC(C)(C)CC(C)(C)c1cc(Cc2cc(C(C)(C)C)cc(-n3nc4ccc(S(=O)(=O)c5ccccc5)cc4n3)c2O)c(O)c(-n2nc3ccc(C(F)(F)F)cc3n2)c1` [G, Methylene-2-[4-tert-butyl-6-(5-phenylsulfonyl-2H-benzotriazol-2-yl)phenol]-2′-[4-tert-octyl-6-(5-trifluoromethyl-2H-benzotriazol-2-yl)phenol]], the “Solubility without Crystallization (%)” value came to 22.0%.
The same measure, in the same setting: then `CC(C)(C)CC(C)(C)c1cc(Cc2cc(C(C)(C)CC(C)(C)C)cc(-n3nc4ccc(C(F)(F)F)cc4n3)c2O)c(O)c(-n2nc3ccccc3n2)c1` [D, methylene-2-[4-tert-octyl-6-(2H-benzotriazol-2-yl)phenol]-2′-[4-tert-octyl-6-(5-trifluoromethyl-2H-benzotriazol-2-yl)phenol]], with 2.0%; and `CC(C)(C)c1cc(Cc2cc(C(C)(C)C)cc(-n3nc4ccc(S(=O)(=O)c5ccccc5)cc4n3)c2O)c(O)c(-n2nc3ccc(S(=O)(=O)c4ccccc4)cc3n2)c1` [A, 2,2′-Methylene-bis[6-(5-phenylsulfonyl-2H-benzotriazol-2-yl)-4-tert-butylphenol]], with 0.0%; and `CC(C)(C)CC(C)(C)c1cc(Cc2cc(C(C)(C)C)cc(-n3nc4ccc(Cl)cc4n3)c2O)c(O)c(-n2nc3ccc(C(F)(F)F)cc3n2)c1` [F, Methylene-2-[4-tert-butyl-6-(5-chloro-2H-benzotriazol-2-yl)phenol]-2 ′-[4-tert-octyl-6-(5-trifluoromethyl-2H-benzotriazol-2-yl)phenol]], with 11.0%.
On to `CC(C)(C)CC(C)(C)c1cc(Cc2cc(C(C)(C)CC(C)(C)C)cc(-n3nc4ccc(C(F)(F)F)cc4n3)c2O)c(O)c(-n2nc3ccc(C(F)(F)F)cc3n2)c1` [E, 2,2′-methylene-bis[6-(5-trifluoromethyl-2H-benzotriazol-2-yl)-4-tert-octylphenol]], for which the “Solubility without Crystallization (%)” value is 4.0%.
Same read-out and setting: for `CC(C)(C)CC(C)(C)c1cc(Cc2cc(C(C)(C)C)cc(-n3nc4ccc(Sc5ccccc5)cc4n3)c2O)c(O)c(-n2nc3ccc(C(F)(F)F)cc3n2)c1` [H, Methylene-2-[4-tert-butyl-6-(5-phenylthio-2H-benzotriazol-2-yl)phenol]-2′-[4-tert-octyl-6-(5-trifluoromethyl-2H-benzotriazol-2-yl)phenol]] the value was 22.0%; for `CC(C)(C)c1cc(-n2nc3ccc(Cl)cc3n2)c(O)c(C(C)(C)C)c1` [C, 5-chloro-2-(2-hydroxy-3,5-di-tert-butylphenyl)-2H-benzotriazole], 2.0%.
On to `CC(C)(c1ccccc1)c1cc(-n2nc3ccccc3n2)c(O)c(C(C)(C)c2ccccc2)c1` [B, 2-(2-hydroxy-3,5-di-α-cumylphenyl)-2H-benzotriazole], for which the “Solubility without Crystallization (%)” value is listed as 2.0%.

Assay in another data set: not given
Settings: not given
Consider `CC(C)(C)c1cc(Cc2cc(C(C)(C)C)cc(-n3nc4ccc(S(=O)(=O)c5ccccc5)cc4n3)c2O)c(O)c(-n2nc3ccc(S(=O)(=O)c4ccccc4)cc3n2)c1` [A, 2,2′-Methylene-bis[6-(5-phenylsulfonyl-2H-benzotriazol-2-yl)-4-tert-butylphenol]], for which the melting point lay in the range of 224 to 234 °C.

The term melting point denotes the temperature of the solid-liquid transition.
